{"source": "patent US5654427A", "about": "“Indolocarbazole derivatives to treat a pathological condition of the prostate” (Kyowa Hakko Kogyo Co., Ltd., priority 1995, dated 1997)", "key": {"protein kinase C": {"tested_on": "protein kinase C", "settings": "background; cited from earlier work"}, "DU-145": {"tested_on": "DU-145", "test": "growth inhibition of DU-145 prostate cancer cells (calcein fluorescence)", "type": "cell-based", "settings": "Homo sapiens, DU-145, 72 h, read-out: DU-145 C50", "method": "(§1) Throughout the experiment the Tsu-Pr1 and Du-Pro1 cells were maintained in RPMI 1640 medium (GIBCO) containing 10% fetal bovine serum (Hyclone), 2 mM glutamine, 100 U/ml penicillin, and 100 μg/ml streptomycin. The PC-3 cells were maintained in Ham's F12K medium (Irvine Scientific) containing 10% fetal bovine serum (Hyclone), 2 mM glutamine, 100 U/ml penicillin, and 100 μg/ml streptomycin. All cell lines were maintained at 37° C. in a humidified atmosphere containing 5% CO2. The DU-145 cells were maintained in minimal essential medium (Gibco), containing 10% fetal bovine serum (Hyclone), 2 mM glutamine, and no antibiotics.\n(§2) Tests for growth inhibition by the candidate compounds were conducted by the following procedure. In each well of a 96-well plate (Falcon) were placed 2,500 cells in 0.1 ml of medium. The cultures were incubated overnight after which a 0.1 ml aliquot of culture medium was added to each well. […] Other control wells received medium without any K-252a derivative compounds. Incubation was continued for three days. On day three the number of cells in each well was measured using a calcein fluorescence assay (Bozyczko-Coyne et al. J. Neurosci. Meth. 50, 205-216 (1993)).\n(§3) Calcein AM (Molecular Probes, Eugene, Oreg.), an analog of the viable dye fluorescein diacetate, is taken up by cells and cleaved intracellularly to fluorescent salts that are retained by intact membranes of viable cells. This method thus provides a reliable and quantitative measurement of cell survival. Calcein AM was diluted 2× in Dulbeccos phosphate buffered saline (D-PBS) to 2× the final assay concentration (6 μM) and 100 μl was added to culture wells containing 100 μl of medium. The plates were then incubated for 1 hour at 37° C. Cells were then washed 4 times with D-PBS to remove excess calcein not taken up by cells. The plate was read using a Millipore plate reading fluorimeter (Cytofluor 2350) at emission=485 nm and excitation=538 nm. After subtraction of blank values (wells containing medium but no cells), relative fluorescent values reflect a quantitative measurement of cell survival.\n(§4) The number of cells in the wells containing functional derivatives was compared to the number of cells in the control wells. The concentration which inhibited cell growth by 50% was calculated and is referred to as the \"IC50 \"."}, "prostate glands": {"tested_on": "prostate glands", "test": "inhibition of prostate growth in sexually immature mice (weight of prostate glands)", "type": "in vivo", "settings": "for Dorsal Prostate weight / Coagulating Glands weight / Seminal Vesicles weight: Table 4; for Dorsal Prostate weight: TEPBS 9.8 ± 1.6; for Coagulating Glands weight: TEPBS 25.1 ± 1.6; for Seminal Vesicles weight: TEPBS 75.0 ± 5.0; for Ventral Prostate weight: mouse, in vivo, sc", "from_the_text": "(§5) The following animal model can be used to test the efficacy of a functional derivative for treatment of a proliferative prostate condition. Sexually immature male mice of 15-20 g each (Charles River Laboratories, Raleigh, N.C.) were used in the following in vivo study. The mice were allowed at least 3 days after purchase to acclimate before being used in any experiments.\n(§6) Each test group contained 12 mice. […] At the end of the 21 day dosing period the mice were sacrificed and whole body blood, dorsal prostate, ventral prostate, coagulating glands, seminal vesicles, heart, liver, stomach, lung, kidneys and testes were collected separately and weighed."}, "protein kinase G": {"tested_on": "protein kinase G", "settings": "background; cited from earlier work"}, "phosphorylase kinase": {"tested_on": "phosphorylase kinase", "settings": "background; cited from earlier work"}, "[1]": {"tested_on": "myosin light-chain kinase", "settings": "background; cited from earlier work"}, "[2]": {"test": "body weight and weight of peripheral organs in sexually immature mice", "settings": "for Body Weight: Table 4, TEPBS 31.5 ± 0.8; for Heart weight / Testes weight / Lung weight / Stomach weight / Kidney weight / Liver weight: Table 5; for Heart weight: TEPBS 171 ± 8.4; for Testes weight: TEPBS 202 ± 6; for Lung weight: TEPBS 230 ± 15.9; for Stomach weight: TEPBS 294 ± 22; for Kidney weight: TEPBS 576 ± 22; for Liver weight: TEPBS 1937 ± 75", "from_the_text": "as §5, §6"}, "Tsu-Pr1": {"tested_on": "Tsu-Pr1", "test": "growth inhibition of Tsu-Pr1 prostate cancer cells (calcein fluorescence)", "type": "cell-based", "settings": "Homo sapiens, TSU-Pr1, 72 h, read-out: Tsu-Pr1 IC50", "method": "as §1, §2, §3, §4"}, "Du-Pro1": {"tested_on": "Du-Pro1", "test": "growth inhibition of Du-Pro1 prostate cancer cells (calcein fluorescence)", "type": "cell-based", "settings": "Homo sapiens, 72 h, read-out: Du-Pro1 IC50", "method": "as §1, §2, §3, §4"}, "PC-3": {"tested_on": "PC-3", "test": "growth inhibition of PC-3 prostate cancer cells (calcein fluorescence)", "type": "cell-based", "settings": "Homo sapiens, PC-3, 72 h, read-out: PC-3 IC50", "method": "as §1, §2\nCalcein AM (Molecular Probes, Eugene, Oreg.), an analog of the viable dye fluorescein diacetate, is taken up by cells and cleaved intracellularly to fluorescent salts that are retained by intact membranes of viable cells. This method thus provides a reliable and quantitative measurement of cell survival. Calcein AM was diluted 2× in Dulbeccos phosphate buffered saline (D-PBS) to 2× the final assay concentration (6 μM) and 100 μl was added to culture wells containing 100 μl of medium. The plates were then incubated for 1 hour at 37° C. Cells were then washed 4 times with D-PBS to remove excess calcein not taken up by cells. The plate was read using a Millipore plate reading fluorimeter (Cytofluor 2350) at emission=485 nm and excitation=538 nm. After subtraction of blank values (wells containing medium but no cells), relative fluorescent values reflect a quantitative measurement of cell survival. […]"}, "protein kinase A": {"tested_on": "protein kinase A", "settings": "background; cited from earlier work"}}, "data": [{"smiles": "COC(=O)C1(O)CC2OC1(C)n1c3ccccc3c3c4c(c5c6ccccc6n2c5c31)C(=O)NC4", "note": "(stereo not drawn) [Compound I-1]", "values": [{"measurement": "inhibitor of protein kinase C", "setting": "protein kinase C", "value": "inhibitor"}, {"measurement": "IC50", "setting": "DU-145", "value": 1200, "unit": "nM"}, {"measurement": "weight of the ventral prostates and seminal vesicles, in words", "setting": "prostate glands; 1 mg/kg", "value": "significantly reduced the weight of the ventral prostates and seminal vesicles"}, {"measurement": "effect of the higher dose, in words", "setting": "prostate glands; 10 mg/kg versus 1 mg/kg", "value": "did not produce any greater effect"}, {"measurement": "Dorsal Prostate weight", "setting": "prostate glands; 1 mg/kg s.c. daily 21 days", "value": "6.2 ± 1.3", "unit": "mg"}, {"measurement": "Coagulating Glands weight", "setting": "prostate glands; 1 mg/kg s.c. daily 21 days", "value": "18.2 ± 2.4", "unit": "mg"}, {"measurement": "Seminal Vesicles weight", "setting": "prostate glands; 1 mg/kg s.c. daily 21 days", "value": "61.4 ± 4.1", "unit": "mg"}, {"measurement": "Dorsal Prostate weight", "setting": "prostate glands; 10 mg/kg s.c. daily 21 days", "value": "6.7 ± 0.7", "unit": "mg"}, {"measurement": "Coagulating Glands weight", "setting": "prostate glands; 10 mg/kg s.c. daily 21 days", "value": "18.5 ± 1.4", "unit": "mg"}, {"measurement": "Seminal Vesicles weight", "setting": "prostate glands; 10 mg/kg s.c. daily 21 days", "value": "66.4 ± 5.6", "unit": "mg"}, {"measurement": "Ventral Prostate weight", "setting": "prostate glands; 1 mg/kg", "value": "7.6 ± 0.9", "unit": "mg"}, {"measurement": "Ventral Prostate weight", "setting": "prostate glands; 10 mg/kg", "value": "8.6 ± 0.8", "unit": "mg"}, {"measurement": "inhibitor of protein kinase G", "setting": "protein kinase G", "value": "inhibitor"}, {"measurement": "inhibitor of phosphorylase kinase", "setting": "phosphorylase kinase", "value": "inhibitor"}, {"measurement": "inhibitor of myosin light-chain kinase", "setting": "[1]", "value": "inhibitor"}, {"measurement": "Body Weight", "setting": "[2]; 1 mg/kg s.c. daily 21 days", "value": "32.2 ± 0.6", "unit": "g"}, {"measurement": "Body Weight", "setting": "[2]; 10 mg/kg s.c. daily 21 days", "value": "30.0 ± 0.6", "unit": "g"}, {"measurement": "Heart weight", "setting": "[2]; 1 mg/kg s.c. daily 21 days", "value": "164 ± 6.4", "unit": "mg"}, {"measurement": "Testes weight", "setting": "[2]; 1 mg/kg s.c. daily 21 days", "value": "216 ± 6", "unit": "mg"}, {"measurement": "Lung weight", "setting": "[2]; 1 mg/kg s.c. daily 21 days", "value": "229 ± 8.02", "unit": "mg"}, {"measurement": "Stomach weight", "setting": "[2]; 1 mg/kg s.c. daily 21 days", "value": "288 ± 10", "unit": "mg"}, {"measurement": "Kidney weight", "setting": "[2]; 1 mg/kg s.c. daily 21 days", "value": "598 ± 19", "unit": "mg"}, {"measurement": "Liver weight", "setting": "[2]; 1 mg/kg s.c. daily 21 days", "value": "1921 ± 81", "unit": "mg"}, {"measurement": "Heart weight", "setting": "[2]; 10 mg/kg s.c. daily 21 days", "value": "152 ± 6.58", "unit": "mg"}, {"measurement": "Testes weight", "setting": "[2]; 10 mg/kg s.c. daily 21 days", "value": "204 ± 11", "unit": "mg"}, {"measurement": "Lung weight", "setting": "[2]; 10 mg/kg s.c. daily 21 days", "value": "263 ± 14.8", "unit": "mg"}, {"measurement": "Stomach weight", "setting": "[2]; 10 mg/kg s.c. daily 21 days", "value": "295 ± 30", "unit": "mg"}, {"measurement": "Kidney weight", "setting": "[2]; 10 mg/kg s.c. daily 21 days", "value": "550 ± 18", "unit": "mg"}, {"measurement": "Liver weight", "setting": "[2]; 10 mg/kg s.c. daily 21 days", "value": "1765 ± 50", "unit": "mg"}, {"measurement": "IC50", "setting": "Tsu-Pr1", "value": 210, "unit": "nM"}, {"measurement": "IC50", "setting": "Du-Pro1", "value": 750, "unit": "nM"}, {"measurement": "IC50", "setting": "PC-3", "value": 3400, "unit": "nM"}, {"measurement": "inhibitor of protein kinase A", "setting": "protein kinase A", "value": "inhibitor"}]}]}
